From patent US20230079439A1, “Compositions and Methods for Enhancing Beta Cell Maturation, Health and Function” (THE REGENTS OF THE UNIVERSITY OF CALIFORNIA, priority 2016, published 2023)

Assays:
isolated mouse islets = test: GSIS test in isolated mouse islets; format: cell-based; conditions: 24 h; 2.5 or 16.7 mM glucose
Protocol: Mice (6 in total) were euthanized by cervical dislocation; the mouse torso was saturated with 70% ethanol. The abdominal cavity was opened completely from anus to diaphragm. The body and tail of the pancreas were removed and separated from fat and large vessels. The pancreas was washed once with HBSS solution and cut into small pieces of approximately 2×3 mm with a scissors. After an additional wash with HBSS solution, the pieces of pancreas were placed in two 50 ml Falcon tubes containing 4 ml of a freshly prepared solution of collagenase (2 mg/ml). After vigorous shaking at 37° C. for approximately 20 min, the collagenase digestion was interrupted by adding 45 ml of ice-chilled HBSS solution. The digested pancreatic tissue was spinned down at 330×g for 3 minutes. Supernatant was removed again and an additional 45 mL of “islet media” was added and spinned down at 330×g for 3 minutes. The histopaque was decanted and the tubes were inverted to drain on an absorbent paper towel for 1 min. The pellet was resuspended in 20 ml for each tube in cold 30% Ficoll solution. […]
Frozen islets medium or lysates were thawed on ice and diluted with water (a typical dilution for the lysate was 300× and for the supernatant—5×). […] The signal was determined by a SpectraMax M5 spectrophotometer. The concentrations of insulin in the samples were normalized by the total protein determined by the BCA assay.

INS-1E cells [1] = test: Cell counting (trypan blue) / proliferation and cluster formation; format: cell-based, rat; conditions: 24 h
Protocol: FIG. 7, comprising FIG. 7A through FIG. 7G, depicts the evaluation of the biological activity of HSA-28P in INS-1E cells. FIG. 7A depicts dose-response analysis of the effect of HSA-28P on the rate of insulin secretion in INS-1E cells. The INS-1E cells were grown and trypsinized as described in Methods. Subsequently, cells were mixed with the indicated concentrations of HSA-28P (red columns), non-relevant peptide nanoparticles (NRPNP, green columns), and naked nanoparticles (NP, blue columns) and were seeded in 12-well plates. After 24 h the cells were taken to a GSIS in the presence of 2.5 mM (weak color bars) or 16.7 mM (strong color bars) glucose. FIG. 7B depicts time-course analysis of the effect of HSA-28P on the rate of insulin secretion in INS-1E cells. The INS-1E cells were prepared for the experiment as described above with 1.34 μM of both HSA-28P or NRPNP, and 0.76 μg/ml of NP. After incubation for the time indicated in the graph, the cells were taken to a GSIS as described in Methods. FIG. 7C depicts the measurement of insulin content. The RIA-assay was performed for INS-1E lysates. […] INS-1E cells were treated as described in Panel D. Cells were detached by trypsin and counted as described in Methods and then were visualized with a Cells Sense Live Imaging microscope. […]
Cells were detached by trypsin and colored by Trypan blue. Only uncolored cells were counted. […]

INS-1E cells [2] = test: Insulin secretion of INS-1E cells after 5 h incubation with peptidomimetic agent; format: cell-based, rat; conditions: INS-1 β cells
Protocol: FIG. 22, comprising FIG. 22A through FIG. 22C, depicts experimental results of incubation of INS1E cells with peptidomimetic agent. A peptidomimetic agent was designed to mimic neuroligin's binding site for neurexin. Monomers and dimers had no effect on insulin secretion. Multiple dimers were conjugated to PEG-2000 to simulate clustering (reagent HSA-112). Dimers were also clustered on nanoparticles (HSA-637). FIG. 22A depicts INS-1E cells were incubated for 5 h with HSA-112 (blue columns) or HSA-637 (purple) at different concentrations or with vehicle alone (black), washed, and then tested for insulin secretion at 3 mM glucose (striped columns) or at 20 mM glucose (solid columns). […] FIG. 22B depicts a time course: insulin secretion was analyzed after the number of hours indicated following a 5 h incubation with 100 μM HSA-112 (blue), 500 nM HSA-637 (purple) or vehicle alone (black). Incubations were with 3 mM glucose (striped columns) or 20 mM glucose (solid columns). FIG. 22C depicts microscopy where INS-1E cells were incubated with HSA-637 conjugated to a fluorescent dye (Cy5, red) and then washed. Membranes were stained with Alexa Fluor 488 (green). For better visualization, microscopy was in hypotonic saline causing the INS-1E cells to swell and become more rounded.

INS-1E cells [3] = test: Glucose-stimulated insulin secretion (GSIS) in INS-1E cells; format: cell-based, rat; conditions: INS-1E cells; 2.5 mM or 16.7 mM glucose
Protocol: FIG. 3, comprising FIG. 3A through FIG. 3D, depicts the evaluation of the biological activity of HSA-112 in INS-1E cells. FIG. 3A depicts a dose-response analysis of the effect of HSA-112 on the rate of insulin secretion in INS-1E cells. The INS-1E cells were grown and treated with increasing doses of HSA-112 for 24 h, as described in Methods. Subsequently, cells were mixed with different concentrations of HSA-112, as indicated in the graph (red columns), PEG2000 (green columns), and free peptide (blue columns) and were seeded in 12-well plates. After 24 h the cells were taken to a GSIS in the presence of 2.5 mM (weak color bars) or 16.7 mM (strong color bars) glucose. FIG. 3B depicts the time-course analysis of the effect of HSA-112 on the rate of insulin secretion in INS-1E cells. The INS-1E cells were prepared for the experiment as described above with 50 μM of HSA-112, PEG2000, or free peptide. After incubation, as indicated in the graph, the cells were taken to a GSIS as described above. FIG. 3C depicts the cell protective effect of HSA-112 under oxidative stress conditions. Cells were prepared for the experiment as described in Methods. Trolox was used as a positive control at a concentration of 100 μM. The oxidative stress was induced in the tissue culture, as described in Methods. Standard MTT analysis (also described in Methods) was used for evaluating the effect of HSA-112 on cell viability. FIG. 3D depicts INS-1E cell proliferation. Cells were prepared for the experiment as described above. After 24 h the cells were colored by trypan blue and counted as described in Methods *p<0.05, n=6. MEAN±SE.
FIG. 7, comprising FIG. 7A through FIG. 7G, depicts the evaluation of the biological activity of HSA-28P in INS-1E cells. FIG. 7A depicts dose-response analysis of the effect of HSA-28P on the rate of insulin secretion in INS-1E cells. The INS-1E cells were grown and trypsinized as described in Methods. Subsequently, cells were mixed with the indicated concentrations of HSA-28P (red columns), non-relevant peptide nanoparticles (NRPNP, green columns), and naked nanoparticles (NP, blue columns) and were seeded in 12-well plates. After 24 h the cells were taken to a GSIS in the presence of 2.5 mM (weak color bars) or 16.7 mM (strong color bars) glucose. FIG. 7B depicts time-course analysis of the effect of HSA-28P on the rate of insulin secretion in INS-1E cells. The INS-1E cells were prepared for the experiment as described above with 1.34 μM of both HSA-28P or NRPNP, and 0.76 μg/ml of NP. After incubation for the time indicated in the graph, the cells were taken to a GSIS as described in Methods. FIG. 7C depicts the measurement of insulin content. The RIA-assay was performed for INS-1E lysates. FIG. 7D depicts the Effect of HSA-28P on the cells viability under oxidative stress conditions. INS-1E cells were incubated for 24 h with a medium supplemented with HSA-28P (3 μM), or HSA-28P1/2 (1.5 μM), or NPs covered by phantom random peptide (PPNP, 3 μM), or NP (0.76 μg/ml), or HSA-28 (3 μM) and trolox, as a positive antioxidant control (1 mM). After the incubation time, 50 mU/ml of glucose oxidase (GO) was added for an additional 1.15 h. Upon completion of the experiments, a standard MTT assay was conducted as described in Methods. Cell viability is presented as a percentage in comparison to non-treated cells. FIG. 7E depicts the effect of HSA-28P on the cell proliferation rate. Experiments were conducted on INS-1E cells that were seeded in 6-well plates. INS-1E cells were treated as described in Panel D. Cells were detached by trypsin and counted as described in Methods and then were visualized with a Cells Sense Live Imaging microscope. FIG. 7F depicts light microscope images of untreated cells. FIG. 7G depicts light microscope images of cells that were treated with HSA-28P. *p<0.05, n=3. MEAN±SE. […]

N=C(N)NCCC[C@H](N)C(=O)O [L-arginine]
effect on GSIS in isolated mouse islets (isolated mouse islets): significantly raised GSIS

QQGEFLNYD [HSA-28, short NL-2 mimetic peptide derived from the NL-4/NX-1 crystal complex]
amount of cells / proliferation rate (INS-1E cells [1]): has not shown any effect on the proliferation rate | effect on insulin secretion (INS-1E cells [2]): had no effect | effect on GSIS (INS-1E cells [3]): did not increase the GSIS
